Consider 15 compounds from PubChem BioAssay (NCI).

Some test systems named below: 786-0 renal; HOP-62 NSCLC; K-562 leukemia; NCI-H226 lung; NCI-H460 lung; SN12C renal; T-47D breast; U251 CNS; RXF 393 renal; SK-MEL-2 melanoma.
What all share (assay): NCI-60 cell line screen, 48 h

Structures are written as SMILES.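 Following 48 hours of exposure in 96-well plates, responses at five concentrations were used to interpolate endpoints linearly. TGI is the concentration that stops growth completely.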

As to `CN1c2ccccc2C2=C(c3ccccc3)CC[C@@H](C(=O)N3C4CC5CC[C@@]4(CS3(=O)=O)C5(C)C)[C@@H]21` (some centres undefined), the TGI with 786-0 renal, in the experiment on HOP-62 NSCLC, in the experiment on K-562 leukemia, in the experiment with NCI-H226 lung, in the experiment on NCI-H460 lung and in the experiment on SN12C renal was more than 100 µM in each case. The TGI with T-47D breast and in the experiment with U251 CNS was more than 100 µM throughout.
On to `CSc1ccc(/C=C2\N=C(c3ccccc3)N(c3nc4cc(Cl)c(F)cc4s3)C2=O)cc1`, for which the TGI is more than 100 µM with 786-0 renal; 98.7 µM in the experiment with HOP-62 NSCLC; more than 100 µM in the experiment with K-562 leukemia; more than 100 µM with NCI-H460 lung; 57.5 µM in the experiment with RXF 393 renal; 50.4 µM in the experiment on SK-MEL-2 melanoma. In addition, the TGI in the experiment on SN12C renal was more than 100 µM; with T-47D breast, more than 100 µM; with U251 CNS, 41.7 µM.
As to `NCCCCNCCCN1CCOC1=O`, the TGI with 786-0 renal, with HOP-62 NSCLC, in the experiment on K-562 leukemia, in the experiment with NCI-H226 lung, with NCI-H460 lung and with SK-MEL-2 melanoma was more than 100 µM each time. The TGI in the experiment on SN12C renal, in the experiment with T-47D breast and in the experiment on U251 CNS was more than 100 µM throughout.
Take `COc1cc(N=Nc2ccc(OC)c(S(=O)(=O)O)c2)c(C)cc1N=Nc1ccc(/C=C/c2ccc(N=[N+]([O-])c3ccc(/C=C/c4ccc(N=Nc5cc(C)c(N=Nc6ccc(OC)c(S(=O)(=O)O)c6)cc5OC)cc4S(=O)(=O)O)c(S(=O)(=O)O)c3)cc2S(=O)(=O)O)c(S(=O)(=O)O)c1`: the TGI in the experiment with HOP-62 NSCLC, in the experiment on K-562 leukemia, with NCI-H226 lung, in the experiment on NCI-H460 lung, in the experiment with RXF 393 renal and in the experiment with SK-MEL-2 melanoma was more than 100 µM throughout. The TGI in the experiment on SN12C renal and in the experiment on U251 CNS was more than 100 µM each time.
On to `O=C1CSC(c2c[nH]c3ccccc23)N1c1ccc(Cl)cc1Cl` (centres undefined), for which the TGI in the experiment with 786-0 renal, in the experiment on HOP-62 NSCLC, with K-562 leukemia, in the experiment with NCI-H460 lung, in the experiment with RXF 393 renal and in the experiment with SN12C renal was more than 100 µM throughout. In addition, the TGI with T-47D breast and in the experiment on U251 CNS was more than 100 µM throughout.
Regarding `CN1C2=Nc3n(c4ccccc4[n+]3C)CN2c2ccccc21`, the TGI was more than 100 µM with 786-0 renal; more than 100 µM with HOP-62 NSCLC; more than 100 µM in the experiment on K-562 leukemia; more than 100 µM in the experiment with NCI-H460 lung; 41.8 µM with SK-MEL-2 melanoma; 93.7 µM in the experiment on SN12C renal. The TGI in the experiment with T-47D breast was 55.1 µM; in the experiment on U251 CNS, more than 100 µM.
For `CCCn1cc2c3c(cccc31)C1C=C(C)CN(C)C1C2` (centres undefined), the TGI worked out at 67.2 µM in the experiment on HOP-62 NSCLC; 22.6 µM in the experiment on K-562 leukemia; 40.9 µM in the experiment with NCI-H226 lung; 36.6 µM with NCI-H460 lung; 52.7 µM in the experiment on RXF 393 renal; 63.4 µM in the experiment on SK-MEL-2 melanoma. Besides, the results for the TGI with SN12C renal and in the experiment with U251 CNS were 60.9 µM and 52 µM, respectively.
As for `C=C1C[C@@H]2O[C@H]3[C@H]4[C@@H](C[C@@H](C)[C@@H](OC(C)=O)[C@H]42)[C@@H](C)CO[C@@]3(C)[C@H](OC(=O)CCCCCCC)CC1=O`, the TGI with 786-0 renal came out at 29.1 µM; in the experiment with HOP-62 NSCLC, 29.8 µM; in the experiment with NCI-H226 lung, 42.9 µM; in the experiment on NCI-H460 lung, 24.2 µM; with SK-MEL-2 melanoma, 35 µM; in the experiment on SN12C renal, 30.2 µM. In addition, the values for the TGI with T-47D breast and in the experiment with U251 CNS were 31.5 µM and 32.5 µM, respectively.
Turning to `CS(=O)(=O)Nc1ccc2ccccc2c1`, the TGI with 786-0 renal, in the experiment with HOP-62 NSCLC, with K-562 leukemia, in the experiment on NCI-H226 lung, in the experiment with NCI-H460 lung and with SK-MEL-2 melanoma was more than 100 µM throughout. The TGI in the experiment with SN12C renal, in the experiment with T-47D breast and with U251 CNS was more than 100 µM each time.
As to `CSc1nc(=O)c2nc(-c3cccs3)c(-c3cccs3)nc2n1C`, the TGI with 786-0 renal is more than 100 µM; with HOP-62 NSCLC, 47.2 µM; in the experiment on K-562 leukemia, more than 100 µM; with NCI-H460 lung it was more than 100 µM; in the experiment with RXF 393 renal it was 59.6 µM; in the experiment with SK-MEL-2 melanoma, more than 100 µM. The results for the TGI in the experiment with SN12C renal, in the experiment on T-47D breast and with U251 CNS were more than 100 µM, 80.4 µM and more than 100 µM, respectively.
For `COc1cc2c(c(OC)c1)[C@H](C)N(Cc1ccccc1)C(C)C2` (some centres undefined), the TGI is more than 100 µM in the experiment on 786-0 renal; more than 100 µM in the experiment on HOP-62 NSCLC; more than 100 µM with K-562 leukemia; 84.6 µM in the experiment on NCI-H226 lung; more than 100 µM in the experiment with NCI-H460 lung; more than 100 µM with SN12C renal. This compound also registered a TGI in the experiment on T-47D breast of more than 100 µM.
Consider `N#Cc1c(-c2ccc([N+](=O)[O-])cc2)c(C#N)c(=O)n(NS(=O)(=O)c2ccccc2)c1O`, for which the TGI in the experiment on 786-0 renal, with HOP-62 NSCLC, with K-562 leukemia, with NCI-H226 lung, with NCI-H460 lung and in the experiment on RXF 393 renal was more than 100 µM in each case. In addition, the TGI in the experiment on SK-MEL-2 melanoma, in the experiment with SN12C renal and in the experiment on U251 CNS was more than 100 µM in each case.
`CN(C)CCNCCCNc1c2ccccc2nc2cccc([N+](=O)[O-])c12`: the TGI in the experiment with 786-0 renal is 0.106 µM; with HOP-62 NSCLC, 0.154 µM; with K-562 leukemia, less than 0.0184 µM; in the experiment on NCI-H226 lung it was 0.102 µM; in the experiment on NCI-H460 lung, 0.108 µM; in the experiment with SK-MEL-2 melanoma it was 0.0523 µM. Further, the TGI in the experiment on SN12C renal turned out to be 0.279 µM; in the experiment on T-47D breast, 0.0899 µM; in the experiment on U251 CNS, 0.0801 µM.
Take `c1cncc(CSc2nc3ccccc3nc2-c2cccs2)c1`: the TGI with 786-0 renal, in the experiment on HOP-62 NSCLC, in the experiment on K-562 leukemia, with NCI-H226 lung, in the experiment on NCI-H460 lung and with SK-MEL-2 melanoma was more than 100 µM throughout. For the same compound, the TGI with SN12C renal is more than 100 µM.
As for `O=C(c1ccco1)N(C(=O)N1CCC(c2ccccc2)CC1)c1ccccc1`, the TGI is more than 100 µM in the experiment with 786-0 renal; more than 100 µM in the experiment on K-562 leukemia; more than 100 µM in the experiment on NCI-H226 lung; 90.9 µM in the experiment on RXF 393 renal; more than 100 µM in the experiment with SK-MEL-2 melanoma; more than 100 µM in the experiment on SN12C renal. Moreover, the TGI was 64.2 µM in the experiment on T-47D breast and more than 100 µM in the experiment with U251 CNS.
